Test results as given in patent publication US20100105707A1, “METHOD OF TREATING OR PREVENTING OXIDATIVE STRESS-RELATED DISEASE” (The United States of America, priority 2006, published 2010).
≈ marks a conversion by molar mass, not a printed value.

Experiments:
[1] = Water solubility in cold water; type: physicochemical
Method: Commercially available derivatives are obtained from Sigma-Aldrich (St. Louis, Mo.). The methods used for the synthesis of methyl- and sulfur-derivatives of uric acid are similar to those described previously (Beaman et al., J. Org. Chem., 27, 986-990 (1962) and Maruyama et al., Nucleosides, Nucleotides, Nucleic Acids, 19, 1193-1203 (2000)) and structures are confirmed by ^13C nuclear magnetic resonance (NMR) and ultra-violet (UV) spectral analyses. Uric acid analogs are assayed by high performance liquid chromatography (HPLC) and found to be of >97% purity.

[2] = system: ROS in cerebral cortex synaptosomes; test: Synaptosome antioxidant assay (Fe2+-induced ROS, dihydrorhodamine 123); type: cell-based, Sprague-Dawley rats; conditions: 1-10 μM, 1 h pretreatment, then 50 μM Fe2+ for 4 h; FIG. 1B
Method: FIG. 1A depicts structures of uric acid and exemplary compounds of formula (I). FIG. 1B illustrates antioxidant activities of uric acid and compounds of formula (I) as quantified using a synaptosome assay in an embodiment of the invention. Levels of reactive oxygen species (ROS) are measured and values are expressed as a percentage of ROS present in Fe^2+-treated control synaptosomes (mean and SEM, n=4 experiments). *p<0.05, **p<0.01 compared to the control value.
Synaptosomes are prepared from the cerebral cortex of 2-3 month-old adult male Sprague-Dawley rats and are cryopreserved using methods described previously (Begley et al., Brain Res. Protoc., 3, 76-82 (1998)). After thawing, cryopreserved synaptosomes are washed twice with Locke's buffer and plated in 24-well plates at a protein concentration of 250 μg per well. […] After an additional 30 min incubation in the presence of 10 μM dihydrorhodamine 123 (DHR), a probe for ROS which fluoresces when oxidized (Keller et al., J. Neurochem., 69, 273-284 (1997)), the synaptosomes are washed twice with Locke's buffer and levels of fluorescence are quantified using a fluorescence plate reader (488 nm excitation and 510 emission wavelengths). Fluorescence values for wells exposed to experimental treatments are expressed as a percentage of the mean value for untreated control wells.

PC12 cells [3] = test: PC12 cell death induced by MPP+; type: cell-based; conditions: concentrations of 0.1 to 10 μM; FIGS. 3A and 3B
From the text: (§1) FIG. 3 illustrates that uric acid and a compound of formula (I) protect cultured neural cells against oxidative and excitotoxic injury in an embodiment of the invention. Cultured PC12 cells are pretreated with uric acid (FIG. 3A) or mUA3 (FIG. 3B). Cultured hippocampal neurons are pretreated with uric acid (FIG. 3C) or mUA3 (FIG. 3D). Cell survival is quantified and values are the mean and SEM of 4-8 cultures. *p<0.05 compared to 0 uric acid or mUA3 concentration.
(§2) Methods for preparation and maintenance of cultures of PC12 cells and primary embryonic rat hippocampal neurons have been described previously (Furukawa et al., J. Neurosci., 17, 8178-8186 (1997) and Chan et al., J. Biol. Chem., 279, 28733-28743 (2004)). Cells are plated into polyethylenimine-coated plastic 96-well culture plates containing Neurobasal medium with B27 supplements. Experiments are performed in 7-8 day-old cultures (hippocampal neurons) or Dulbecco's modified eagle's medium (DMEM) with 10% fetal bovine serum (PC12 cells). Hippocampal neurons and PC12 cells are plated 7 days and 3 days prior to experiments, respectively. […] Cell viability is quantified by counting viable neurons in premarked microscope fields prior to and following experimental treatment and then calculating percent survival. […]

PC12 cells [4] = test: PC12 cell death induced by Fe2+; type: cell-based; conditions: concentrations of 0.1 to 10 μM; FIGS. 3A and 3B
From the text: as §1, §2

[5] = system: primary hippocampal neurons; test: Hippocampal neuron death induced by Fe2+; type: cell-based, rat; conditions: FIGS. 3C and 3D
From the text: as §1, §2

[6] = system: primary hippocampal neurons; test: Hippocampal neuron death induced by glutamate excitotoxicity; type: cell-based, rat; conditions: FIGS. 3C and 3D
From the text: as §1, §2

[7] = Pharmacokinetics: plasma and brain levels after intravenous administration; type: in vivo, C57BL/6 mice; conditions: mice; for Kp: male, C57BL/6, mouse, brain (cerebral cortical tissue) / plasma, early time points (15-30 min), read-out: brain tissue concentration as percentage of plasma concentration; for detection in the brain: equimolar to 10 mg/kg uric acid, 15, 30, 60 and 120 min; for brain concentration time course versus plasma: through the 120 min time point
Method: Mice are administered intravenously 10 mg/kg ([…]) of uric acid as a reference compound and equimolar doses of its analogs (sUA4-2,6,8 trithio uric acid, 12.9 mg/kg; mUA2-1,7 dimethyl uric acid, 11.7 mg/kg; sUA2-6,8 dithio uric acid, 11.9 mg/kg). Three month-old male C57BL/6 mice are injected with a compound and are euthanized 15, 30, 60 or 120 min later (1 mouse/time point/compound). Blood and brain tissues are rapidly removed, frozen on dry ice and kept at −80° C. before quantification of uric acid analogs. Plasma and cerebral cortical tissues are extracted in 10 volumes of 0.5 M perchloric acid and 1 mM ethylenediamine tetraacetic acid (EDTA). Levels of uric acid analogs in the extracts are quantified by HPLC methods employing a 25 cm RP C18 column, 25 mM KH2PO4 buffer (pH=4.6) with 1 ml/min flow rate and UV diode array detection.
Mice that are administered mUA2, sUA2 or sUA4 intravenously are euthanized at increasing time points (15, 30, 60 and 120 min) and levels of the compounds in plasma and brain tissue are measured.

[8] = system: cultured hippocampal neurons; test: Oxygen and glucose deprivation (OGD) of cultured hippocampal neurons; type: cell-based, rat; conditions: compared to neurons in control cultures; FIG. 2
Method: FIG. 2 illustrates that compounds of formula (I) protect cultured hippocampal neurons against ischemia-like conditions in an embodiment of the invention. Neuronal survival is quantified and values are the mean and SEM (n=8-10 cultures). *p<0.05 compared to the vehicle/OGD cultures. Synaptosomes are prepared from the cerebral cortex of 2-3 month-old adult male Sprague-Dawley rats and are cryopreserved using methods described previously (Begley et al., Brain Res. Protoc., 3, 76-82 (1998)). After thawing, cryopreserved synaptosomes are washed twice with Locke's buffer and plated in 24-well plates at a protein concentration of 250 μg per well. After a 30 min period to permit attachment of the synaptosomes to the substrate, synaptomoses are incubated for 1 h with compounds of formula (I) (1-10 μM), and then exposed for 4 h to freshly prepared 50 μM Fe^2+ (FeSO4). After an additional 30 min incubation in the presence of 10 μM dihydrorhodamine 123 (DHR), a probe for ROS which fluoresces when oxidized (Keller et al., J. Neurochem., 69, 273-284 (1997)), the synaptosomes are washed twice with Locke's buffer and levels of fluorescence are quantified using a fluorescence plate reader (488 nm excitation and 510 emission wavelengths). Fluorescence values for wells exposed to experimental treatments are expressed as a percentage of the mean value for untreated control wells. […] Methods for preparation and maintenance of cultures of PC12 cells and primary embryonic rat hippocampal neurons have been described previously (Furukawa et al., J. Neurosci., 17, 8178-8186 (1997) and Chan et al., J. Biol. Chem., 279, 28733-28743 (2004)). Cells are plated into polyethylenimine-coated plastic 96-well culture plates containing Neurobasal medium with B27 supplements. Experiments are performed in 7-8 day-old cultures (hippocampal neurons) or Dulbecco's modified eagle's medium (DMEM) with 10% fetal bovine serum (PC12 cells). […] Cell viability is quantified by counting viable neurons in premarked microscope fields prior to and following experimental treatment and then calculating percent survival.

[9] = system: mouse model of focal ischemic stroke; test: Focal cerebral ischemia-reperfusion (middle cerebral artery occlusion) model; type: in vivo, C57BL/6 mice; conditions: administered 1 h after ischemia onset; for functional outcome (neurological deficit score): FIG. 5A; for brain damage: FIG. 5B
Method: (§3) FIG. 4 illustrates that a compound of formula (I) improves functional outcome (e.g., ambulation) and reduces brain damage in a mouse model of focal ischemic stroke in an embodiment of the invention. In FIG. 4A neurological function is scored at 24, 48 and 72 hours post-stroke. In FIG. 4B infarct volume is quantified at 72 hours post-stroke. Values are the mean and SEM (n=8-12 mice). *p<0.001 compared to sham. +p<0.01 compared to vehicle.
as §3, with “FIG. 5” for “FIG. 4”, “that compounds” for “that a compound”, “(I) improve” for “(I) improves”, “outcome” for “outcome (e.g., ambulation)”, “FIG. 5A,” for “FIG. 4A”, “FIG. 5B,” for “FIG. 4B”
Three month-old male C57BL/6 mice are maintained on a 12 h light/12 h dark cycle with continuous access to food and water. The method for subjecting the mice to middle cerebral artery occlusion-reperfusion has been described previously (Arumugam et al., Am. J. Physiol. Heart Circ. Physiol., 287, H2555-2560 (2004)). Mice are anesthetized with isofluorane, a midline incision is made in the neck, and the left external carotid and pterygopalatine arteries are isolated and ligated with 5-0 silk thread. The internal carotid artery (ICA) is occluded at the peripheral site of the bifurcation of the internal carotid artery and the pterygopalatine artery with a small clip and the common carotid artery is ligated with 5-0 silk thread. The external carotid artery is cut, and a 6-0 nylon monofilament with a tip that is blunted (0.2-0.22 mm) with a coagulator is inserted into the external carotid artery. After the clip at the ICA is removed, the nylon thread is advanced into the middle cerebral artery until light resistance is felt. The nylon thread and the common carotid artery ligature are removed after 1 h of occlusion to initiate reperfusion. In the sham group, these arteries are visualized but not disturbed. Mice are administered either uric acid analogs of formula (I) or vehicle (dimethylsulfoxide) by infusion into the femoral vein (10 μl infused over a 2 min period) either 30 min prior to or 60 min after the onset of middle cerebral artery (MCA) occlusion. In a separate set of experiments anesthetized animals from all groups (4-6 mice per group) undergo cerebral blood flow (CBF) measurements using a laser Doppler perfusion monitor. All blood flow measurements are conducted with the mouse fixed in a plastic frame with the probe placed in the region of cerebral cortex perfused by the middle cerebral artery. These procedures are approved by the National Institute on Aging Animal Care and Use Committee.
The functional consequences of focal cerebral ischemia-reperfusion injury are evaluated by using a five-point neurological deficit score (0, no deficit; 1, failure to extend right paw; 2, circling to the right; 3, falling to the right; and 4, unable to walk spontaneously) and are assessed in a blinded fashion. At 72 h of reperfusion, the mice are killed with a lethal dose of isofluorane. The brains are immediately removed and placed into PBS (4° C.) for 15 min, and 2-mm coronal sections are cut with a tissue cutter. The brain sections are stained with 2% 2,3,5-triphenyltetrazolium chloride in phosphate buffer at 37° C. for 15 min. The stained sections are photographed, and the digitized images are used for analysis. The borders of the infarct in each brain slice are outlined and the area quantified using a NIH image 6.1 software. To correct for brain swelling, the infarct area is determined by subtracting the area of undamaged tissue in the left hemisphere from that of the intact contralateral hemisphere. Infarct volume is calculated by integration of infarct areas for all slices of each brain.

solubility [1] | Kp [7] | Compound | levels of ROS in synaptosomes [2] | protection of PC12 cells against MPP+ (PC12 cells [3]) | protection of PC12 cells against Fe2+ (PC12 cells [4]) | protection of primary hippocampal neurons against death induced by Fe2+ [5] | protection of primary hippocampal neurons against glutamate excitotoxicity [6] | detection in the brain [7] | brain concentration time course versus plasma [7] | resistance to OGD induced death [8] | functional outcome (neurological deficit score) [9] | brain damage [9]
100 µg/mL (≈ 0.595 mM) |  | O=c1[nH]c(=O)c2[nH]c(=O)[nH]c2[nH]1 [uric acid] | significantly diminished | protected | protected | protected | protected |  |  |  |  | 
2000 µg/mL (≈ 10.2 mM) | ~0.1 | Cn1c(=O)[nH]c2[nH]c(=O)n(C)c2c1=O [mUA2, 1,7 dimethyl uric acid] |  |  |  |  |  | detected in the brain at all time points examined | remain elevated while plasma concentrations decrease progressively | significantly more resistant | significantly improve functional outcome | decrease brain damage
3000 µg/mL (≈ 13.9 mM) | ~0.1 | S=c1[nH]c(=S)c2[nH]c(=S)[nH]c2[nH]1 [sUA4, 2,6,8 trithio uric acid] |  |  |  |  |  | detected in the brain at all time points examined | remain elevated while plasma concentrations decrease progressively | significantly more resistant | significantly improve functional outcome | decrease brain damage
